Like-named read-outs stand apart in the source and are kept apart here.
Experiments:
[1] = test system: microfilaria of Dirofilaria immitis; assay: Method C: microfilaria of Dirofilaria immitis motility screen; assay type: cell-based; conditions: read-out: inhibition of the microfilaria's motility
[2] = human, Caco-2, pH 6.5
Experimental: Permeability of Compounds.
An in vitro model utilizing Caco-2/TC7 cells is employed to assess the permeability characteristics of new chemical entities (NCEs).
The permeability studies were performed under standard conditions in the apical to basolateral (A→B) direction with a pH gradient and a BSA gradient (standard apical medium (0.5% BSA at pH 6.5)/standard basal medium (5% BSA at pH 7.4)); conditions that most closely reflect the conditions in the in vivo situation. Samples were deproteinized by the addition of 400 μl acetonitrile to 200 μl sample, followed by a 20-minute centrifugation at 1730 g. Compound solubilisation: compound solutions at final concentrations of 20 μM were prepared following dilutions of stock solutions (starting from 10 mM in DMSO) in HBSS. Final concentration of DMSO was adjusted to 1%. Analytical conditions: Supernatants recovered following centrifugation were analysed by LC/MS/MS using a reverse phase column and the mobile phases delivered at 0.3 ml/minute in a gradient: water (A) and acetonitrile (B) (each with 0.1% formic acid).
Every experiment (n) represents the mean of 3 filters per experiment.

[3] = test system: Haemonchus contortus; assay: Method A: Haemonchus contortus L1 larval development/motility screen in microtitre plate; assay type: cell-based; conditions: 96 h, read-out: motility inhibition

| Compound | inhibition at 10 µM ([1]; 24 h) | Papp A→B at 20 μM [2] | inhibition at 5 µM [3] | further results |
| --- | --- | --- | --- | --- |
| O=C(CC1CCCC1)N1CCN(c2cc(O[C@H]3CC[C@H](Nc4ccc([N+](=O)[O-])c(C(F)(F)F)c4)CC3)ccn2)CC1 [Compound 3, 2-Cyclopentyl-1-[4-(4-[[4-[[4-nitro-3-(trifluoromethyl)phenyl]amino]cyclohexyl]oxy]pyridin-2-yl)piperazin-1-yl]ethan-1-one] | ≥ 90% | 26.4 nm/s | – | – |
| O=[N+]([O-])c1ccc(N[C@H]2CC[C@H](Oc3cncc(N4CCN(Cc5ccc(F)cc5)CC4)c3)CC2)cc1C(F)(F)F [Compound 4, 4-nitro-N-[4-[(5-[4-[(4-fluorophenyl)methyl]piperazin-1-yl]pyridin-3-yl)oxy]cyclohexyl]-3-(trifluoromethyl)aniline] | ≥ 90% | 18.4 nm/s | – | inhibition at 1 µM ([1]; 24 h): ≥ 90% |
| O=C(CC1CCC1)N1CCN(c2cc(O[C@H]3CC[C@H](Nc4ccc([N+](=O)[O-])c(C(F)(F)F)c4)CC3)ccn2)CC1 [Compound 8] | ≥ 90% | 40.1 nm/s | ≥ 90% | – |
| O=C(OC1CCCC1)N1CCN(c2ccnc(O[C@H]3CC[C@H](Nc4ccc([N+](=O)[O-])c(C(F)(F)F)c4)CC3)c2)CC1 [Compound 9, cyclopentyl 4-[2-[(4-[[4-nitro-3-(trifluoromethyl)phenyl]amino]cyclohexyl)oxy]pyridin-4-yl]piperazine-1-carboxylate] | – | 10.8 nm/s | ≥ 90% | – |
| CCCCC(=O)N1CCN(c2cc(O[C@H]3CC[C@H](Nc4ccc([N+](=O)[O-])c(C(F)(F)F)c4)CC3)ccn2)CC1 [Compound 10] | – | 58.1 nm/s | ≥ 90% | – |
| O=C(Oc1ccc(F)cc1)N1CCN(c2cncc(O[C@H]3CC[C@H](Nc4ccc([N+](=O)[O-])c(C(F)(F)F)c4)CC3)c2)CC1 [Compound 11] | – | 5.5 nm/s | ≥ 90% | – |
| CC(C)(C)OC(=O)N1CCN(c2ccnc(O[C@H]3CC[C@H](Nc4ccc([N+](=O)[O-])c(C(F)(F)F)c4)CC3)c2)CC1 [Compound 13] | – | 7.8 nm/s | ≥ 90% | inhibition at 5 ppm ([1]; 24 h): ≥ 90% |
| O=C(CC1CCCCC1)N1CCN(c2cc(O[C@H]3CC[C@H](Nc4ccc([N+](=O)[O-])c(C(F)(F)F)c4)CC3)ccn2)CC1 [Compound 14] | ≥ 90% | 22.8 nm/s | ≥ 90% | – |
| CC(C)(C)OC(=O)N1CCN(c2cncc(O[C@H]3CC[C@H](Nc4ccc([N+](=O)[O-])c(C(F)(F)F)c4)CC3)c2)CC1 [Compound 15] | – | 20.7 nm/s | ≥ 90% | – |
| CCCCC(=O)N1CCN(c2ccnc(O[C@H]3CC[C@H](Nc4ccc([N+](=O)[O-])c(C(F)(F)F)c4)CC3)c2)CC1 [Compound 17] | – | 39.9 nm/s | ≥ 90% | inhibition at 5 ppm ([1]; 24 h): ≥ 90% |
| O=[N+]([O-])c1ccc(N[C@H]2CC[C@H](Oc3cncc(N4CCN(Cc5ccc(C(F)(F)F)cc5)CC4)c3)CC2)cc1C(F)(F)F [Compound 18] | ≥ 90% | 5.3 nm/s | ≥ 90% | – |
| CCCOC(=O)N1CCN(c2cncc(O[C@H]3CC[C@H](Nc4ccc([N+](=O)[O-])c(C(F)(F)F)c4)CC3)c2)CC1 [Compound 21] | – | 34.5 nm/s | ≥ 90% | inhibition at 5 ppm ([1]; 24 h): ≥ 90% |
| CCCC(=O)N1CCN(c2cncc(O[C@H]3CC[C@H](Nc4ccc([N+](=O)[O-])c(C(F)(F)F)c4)CC3)c2)CC1 [Compound 31] | – | 107 nm/s | ≥ 90% | – |
| O=C(CC(F)(F)F)N1CCN(c2cc(O[C@H]3CC[C@H](Nc4ccc([N+](=O)[O-])c(C(F)(F)F)c4)CC3)ccn2)CC1 [Compound 71] | ≥ 90% | – | ≥ 90% | – |
| COCCOCC(=O)N1CCN(c2cc(O[C@H]3CC[C@H](Nc4ccc([N+](=O)[O-])c(C(F)(F)F)c4)CC3)ccn2)CC1 [Compound 72] | ≥ 90% | – | ≥ 90% | – |
| COC(=O)N1CCN(c2cc(O[C@H]3CC[C@H](Nc4ccc([N+](=O)[O-])c(C(F)(F)F)c4)CC3)ccn2)CC1 [Compound 75] | – | – | ≥ 90% | inhibition at 10 µM ([1]; 10 μM, 24 hours): ≥ 90% |
| O=[N+]([O-])c1ccc(N[C@H]2CC[C@H](Oc3ccnc(N4CCN(C/C=C/c5ccc(C(F)(F)F)cc5)CC4)c3)CC2)cc1C(F)(F)F [Compound 76] | – | – | ≥ 90% | inhibition at 5 ppm ([1]; 24 h): ≥ 90% |
| CCCN1CCN(c2cncc(O[C@H]3CC[C@H](Nc4ccc([N+](=O)[O-])c(C(F)(F)F)c4)CC3)c2)CC1 [Compound 77] | ≥ 90% | – | ≥ 90% | – |
| CCCN1CCN(c2cc(O[C@H]3CC[C@H](Nc4ccc([N+](=O)[O-])c(C(F)(F)F)c4)CC3)ccn2)CC1 [Compound 78] | – | – | ≥ 90% | inhibition at 10 µM ([1]; 10 μM, 24 hours): ≥ 90% |

| Compound | inhibition at 10 µM ([1]; 24 h) | Papp A→B at 20 μM [2] | inhibition at 5 µM [3] | further results |
| --- | --- | --- | --- | --- |
| O=[N+]([O-])c1ccc(N[C@H]2CC[C@H](Oc3cncc(N4CCN(C(=S)NC5CCCC5)CC4)c3)CC2)cc1C(F)(F)F [Compound 79] | – | – | ≥ 90% | inhibition at 5 ppm ([1]; 24 h): ≥ 90% |
| O=[N+]([O-])c1ccc(N[C@H]2CC[C@H](Oc3ccc(N4CCN(C/C=C/c5ccc(C(F)(F)F)cc5)CC4)nc3)CC2)cc1C(F)(F)F [Compound 80] | – | – | ≥ 90% | inhibition at 1 ppm ([1]; 24 h): ≥ 90%; inhibition at 5 ppm ([1]; 24 h): ≥ 90% |
| O=[N+]([O-])c1ccc(N[C@H]2CC[C@H](Oc3cc(N4CCN(C(=S)NC5CCCC5)CC4)ccn3)CC2)cc1C(F)(F)F [Compound 81] | – | – | ≥ 90% | inhibition at 1 ppm ([1]; 24 h): ≥ 90%; inhibition at 5 ppm ([1]; 24 h): ≥ 90% |
| O=C(NC1CCCC1)N1CCN(c2cncc(O[C@H]3CC[C@H](Nc4ccc([N+](=O)[O-])c(C(F)(F)F)c4)CC3)c2)CC1 [Compound 82] | ≥ 90% | – | ≥ 90% | – |
| CC(C)(C)OC(=O)N1CCN(c2ccc(O[C@H]3CC[C@H](Nc4ccc([N+](=O)[O-])c(C(F)(F)F)c4)CC3)cn2)CC1 [Compound 83] | – | – | ≥ 90% | inhibition at 5 ppm ([1]; 24 h): ≥ 90% |
| CCCNC(=O)N1CCN(c2ccnc(O[C@H]3CC[C@H](Nc4ccc([N+](=O)[O-])c(C(F)(F)F)c4)CC3)c2)CC1 [Compound 85] | – | – | ≥ 90% | inhibition at 5 ppm ([1]; 5 ppm, 24 hours): ≥ 90% |
| O=[N+]([O-])c1ccc(N[C@H]2CC[C@H](Oc3ccnc(N4CCN(Cc5nc6cc(C(F)(F)F)ccc6s5)CC4)c3)CC2)cc1C(F)(F)F [Compound 86] | – | – | ≥ 90% | inhibition at 5 ppm ([1]; 24 h): ≥ 90% |
| CCCN1CCN(c2ccnc(O[C@H]3CC[C@H](Nc4ccc([N+](=O)[O-])c(C(F)(F)F)c4)CC3)c2)CC1 [Compound 87] | ≥ 90% | – | ≥ 90% | – |
| O=[N+]([O-])c1ccc(N[C@H]2CC[C@H](Oc3cc(N4CCN(C(=S)Nc5ccc(F)cc5)CC4)ccn3)CC2)cc1C(F)(F)F [Compound 89] | – | – | ≥ 90% | inhibition at 5 ppm ([1]; 24 h): ≥ 90% |
| CCCNC(=O)N1CCN(c2cncc(O[C@H]3CC[C@H](Nc4ccc([N+](=O)[O-])c(C(F)(F)F)c4)CC3)c2)CC1 [Compound 95] | – | – | ≥ 90% | inhibition at 10 µM ([1]; 10 μM, 24 hours): ≥ 90% |
| CCNC(=O)N1CCN(c2ccnc(O[C@H]3CC[C@H](Nc4ccc([N+](=O)[O-])c(C(F)(F)F)c4)CC3)c2)CC1 [Compound 96] | ≥ 90% | – | ≥ 90% | – |
| O=[N+]([O-])c1ccc(N[C@H]2CC[C@H](Oc3ccc(N4CCN(c5ccc6cc(C(F)(F)F)ccc6n5)CC4)nc3)CC2)cc1C(F)(F)F [Compound 102] | – | 0.1 nm/s | – | – |
| O=C(Nc1ccc(F)cc1)N1CCN(c2cncc(O[C@H]3CC[C@H](Nc4ccc([N+](=O)[O-])c(C(F)(F)F)c4)CC3)c2)CC1 [Compound 106] | – | – | ≥ 90% | inhibition at 10 µM ([1]; 10 μM, 24 hours): ≥ 90% |
| N#Cc1ccc(N[C@H]2CC[C@H](Oc3ccnc(N4CCN(C(=O)CC5CCCC5)CC4)c3)CC2)cc1C(F)(F)F [Compound 177] | ≥ 90% | – | ≥ 90% | – |
| N#Cc1ccc(N[C@H]2CC[C@H](Oc3cncc(N4CCN(Cc5ccc(C(F)(F)F)cc5)CC4)c3)CC2)cc1C(F)(F)F [Compound 181] | ≥ 90% | – | ≥ 90% | – |
| N#Cc1ccc(N[C@H]2CC[C@H](Oc3cc(N4CCN(C(=O)CC5CCCC5)CC4)ccn3)CC2)cc1C(F)(F)F [Compound 183] | ≥ 90% | – | ≥ 90% | – |
| O=C(CC1CCCC1)N1CCN(c2cc(O[C@H]3CC[C@H](Nc4ccc(S(=O)(=O)C(F)(F)F)cc4)CC3)ccn2)CC1 [Compound 188] | ≥ 90% | – | ≥ 90% | – |
| O=C(OC1CCCC1)N1CCN(c2cncc(O[C@H]3CC[C@H](Nc4ccc([N+](=O)[O-])c(C(F)(F)F)c4)CC3)c2)CC1 [Compound 196, cyclopentyl 4-(5-[[4-[[4-nitro-3-(trifluoromethyl)phenyl]amino]cyclohexyl]oxy]pyridin-3-yl)piperazine-1-carboxylate] | – | – | ≥ 90% | inhibition at 5 ppm ([1]; 24 h): ≥ 90% |
